In article PMC7031696 (Cell chemical biology, 2019):
Where two headings read alike, the source gives them in different places.

How the values were obtained:
[1] = system: Plasmodium falciparum 3D7-A10 parasites; experiment: Stage specificity assay (8-h exposure of synchronized stages, IC50^8h); type: cell-based; details: Plasmodium falciparum
[2] = system: asynchronous 3D7-A10 parasite cultures; experiment: Standard 72-h exposure asexual blood stage susceptibility assay (IC50^72h); type: cell-based, Plasmodium falciparum; details: Plasmodium falciparum, 3D7, 72 h, read-out: Overall (72hr assay) Mean IC50 (IC50^72h)
[3] = system: 3D7-MR4 trophozoite parasite-infected RBCs; experiment: Metabolomic profiling (hydrophilic metabolite changes, UHPLC-MS); type: cell-based, Plasmodium falciparum

Structure (SMILES): O=C(Nc1ccc(N2CCNCC2)cc1)c1ccn2ncc(-c3cccc(Cl)c3)c2n1.O=C(O)C(F)(F)F [MMV022478]
- IC50 ([1]; 3D7, 8 h, read-out: IC50^8h values at all tested stages, 8-h exposures, all asexual blood stages): > 1000 nM
- IC50 ([1]; 3D7, read-out: Early rings Mean IC50 (IC50^8h), 8-h exposure 0–8 hr, 3D7-A10, survival at 60 h): 7630 nM
- IC50 ([1]; 3D7, read-out: Early trophozoites Mean IC50 (IC50^8h), 8-h exposure 16–24 hr, 3D7-A10, survival at 60 h): 2130 nM
- IC50 ([1]; 3D7, read-out: Late rings Mean IC50 (IC50^8h), 8-h exposure 8–16 hr, 3D7-A10, survival at 60 h): 4870 nM
- IC50 ([1]; 3D7, read-out: Late trophozoites Mean IC50 (IC50^8h), 8-h exposure 24–32 hr, 3D7-A10, survival at 60 h): 2530 nM
- IC50 ([1]; 3D7, read-out: Schizonts Mean IC50 (IC50^8h), 8-h exposure 32–40 hr, 3D7-A10, survival at 60 h): 3370 nM
- IC50 [2]: 11.1 nM
- peptide levels (hemoglobin catabolism signature) ([3]; 10 × IC50^72h, 2.5 hr, trophozoites): decreased peptide levels
- Log2(fold changes) 3-phosphoglycerate ([3]; metabolite 3-phosphoglycerate, log2 fold change): -0.2221
- Log2(fold changes) 4-Pyridoxic acid ([3]; metabolite 4-Pyridoxic acid, log2 fold change): 0.0000
- Log2(fold changes) 4-aminobutyrate ([3]; metabolite 4-aminobutyrate, log2 fold change): -1.1535
- Log2(fold changes) 4-phosphopantetheine ([3]; metabolite 4-phosphopantetheine, log2 fold change): 0.0000
- Log2(fold changes) 4-phosphopantothenate ([3]; metabolite 4-phosphopantothenate, log2 fold change): -2.5840
- Log2(fold changes) 5-aminopentanoic acid ([3]; metabolite 5-aminopentanoic acid, log2 fold change): 0.0000
- Log2(fold changes) 5-methyl-THF ([3]; metabolite 5-methyl-THF, log2 fold change): 0.0000
- Log2(fold changes) 5-phosphoribosyl-1-pyrophosphate ([3]; metabolite 5-phosphoribosyl-1-pyrophosphate, log2 fold change): -3.8277
- Log2(fold changes) 6-phospho-D-gluconate ([3]; metabolite 6-phospho-D-gluconate, log2 fold change): -1.2363
- Log2(fold change) HVDD ([3]; metabolite HVDD): -6.0354
- Log2(fold change) Hydroxyisocaproic acid ([3]; metabolite Hydroxyisocaproic acid): 0.0000
- Log2(fold change) IDP ([3]; metabolite IDP): 0.0000
- Log2(fold change) IMP ([3]; metabolite IMP): -1.9723
- Log2(fold change) Inositol ([3]; metabolite Inositol): 0.0000
- Log2(fold change) Isopentyl-PP ([3]; metabolite Isopentyl-PP): 0.0000
- Log2(fold change) L-arginino-succinate ([3]; metabolite L-arginino-succinate): 0.0000
- Log2(fold change) LD ([3]; metabolite LD): 0.0000
- Log2(fold change) Myristoyl/tetradecanoyl-CoA ([3]; metabolite Myristoyl/tetradecanoyl-CoA): 0.0000
- Log2(fold change) N-Acetyl-L-alanine ([3]; metabolite N-Acetyl-L-alanine): -4.1046
- Log2(fold change) N-acetyl-L-ornithine ([3]; metabolite N-acetyl-L-ornithine): -4.9077
- Log2(fold change) N-acetyl-glucosamine-1/6-phosphate ([3]; metabolite N-acetyl-glucosamine-1/6-phosphate): -2.7078
- Log2(fold change) N-acetyl-glutamate ([3]; metabolite N-acetyl-glutamate): -2.2943
- Log2(fold change) N-acetyl-glutamine ([3]; metabolite N-acetyl-glutamine): 0.0000
- Log2(fold change) N-carbamoyl-L-aspartate ([3]; metabolite N-carbamoyl-L-aspartate): -4.4049
- Log2(fold change) NAD+ ([3]; metabolite NAD+): 0.0000
- Log2(fold change) NADH ([3]; metabolite NADH): 0.4682
- Log2(fold change) NADP+ ([3]; metabolite NADP+): -1.0797
- Log2(fold change) NADPH ([3]; metabolite NADPH): -1.0955
- Log2(fold change) O-acetyl-L-serine ([3]; metabolite O-acetyl-L-serine): 0.0000
- Log2(fold change) Octoluse 8/1P ([3]; metabolite Octoluse 8/1P): 0.0000
- Log2(fold change) Octoluse Bisphosphate ([3]; metabolite Octoluse Bisphosphate): -0.1243
- Log2(fold change) PD ([3]; metabolite PD): -4.6260
- Log2(fold change) PE ([3]; metabolite PE): -5.1379
- Log2(fold change) PEE ([3]; metabolite PEE): -4.6436
- Log2(fold change) PEEK ([3]; metabolite PEEK): 0.0000
- Log2(fold change) PVNF ([3]; metabolite PVNF): -7.1540
- Log2(fold change) Pyroglutamic acid ([3]; metabolite Pyroglutamic acid): 0.0000
- Log2(fold change) Pyrophosphate ([3]; metabolite Pyrophosphate): 0.0000
- Log2(fold change) Ribose-5-phosphate ([3]; metabolite Ribose-5-phosphate): -2.7334
- Log2(fold change) S-adenosyl-L-homocysteine ([3]; metabolite S-adenosyl-L-homocysteine): -2.8781
- Log2(fold change) S-adenosyl-L-methioninamine ([3]; metabolite S-adenosyl-L-methioninamine): 0.0000
- Log2(fold change) S-adenosyl-L-methionine ([3]; metabolite S-adenosyl-L-methionine): 0.0000
- Log2(fold change) S-methyl-5'-thioadenosine ([3]; metabolite S-methyl-5'-thioadenosine): 0.0000
- Log2(fold change) SD ([3]; metabolite SD): -2.2622
- Log2(fold change) SDL ([3]; metabolite SDL): 0.0000
- Log2(fold change) SID ([3]; metabolite SID): -5.7557
- Log2(fold change) Sedoheptulose bisphosphate ([3]; metabolite Sedoheptulose bisphosphate): -0.2613
- Log2(fold change) Thiamine pyrophosphate ([3]; metabolite Thiamine pyrophosphate): 0.0000
- Log2(fold changes) UDP-D-glucose ([3]; metabolite UDP-D-glucose, log2 fold change): -0.2797
- Log2(fold changes) UDP-D-glucuronate ([3]; metabolite UDP-D-glucuronate, log2 fold change): -0.6750
- Log2(fold changes) UDP-N-acetyl-glucosamine ([3]; metabolite UDP-N-acetyl-glucosamine, log2 fold change): -0.7739
- Log2(fold changes) UDP ([3]; metabolite UDP, log2 fold change): -2.1596
- Log2(fold changes) UMP ([3]; metabolite UMP, log2 fold change): -1.4504
- Log2(fold changes) UTP ([3]; metabolite UTP, log2 fold change): -1.2572
- Log2(fold change) hydroxyphenylpyruvate ([3]; metabolite hydroxyphenylpyruvate): 0.0000
- Log2(fold change) hydroxyproline/Aminolevulinate ([3]; metabolite hydroxyproline/Aminolevulinate): -0.1426
- Log2(fold change) hypoxanthine ([3]; metabolite hypoxanthine): 0.3419
- Log2(fold change) indole ([3]; metabolite indole): 0.0000
- Log2(fold change) inosine ([3]; metabolite inosine): -0.5164
- Log2(fold change) isoleucine ([3]; metabolite isoleucine): 0.2629
- Log2(fold change) lactate ([3]; metabolite lactate): -0.9550
- Log2(fold change) leucine ([3]; metabolite leucine): 0.0229
- Log2(fold change) lysine ([3]; metabolite lysine): 0.0000
- Log2(fold change) malate ([3]; metabolite malate): -1.9880
- Log2(fold change) maleic acid ([3]; metabolite maleic acid): -2.0576
- Log2(fold change) methionine ([3]; metabolite methionine): 0.4668
- Log2(fold change) myo-inositol ([3]; metabolite myo-inositol): 0.0000
- Log2(fold change) nicotinamide mononucleotide ([3]; metabolite nicotinamide mononucleotide): 0.0000
- Log2(fold change) nicotinate ([3]; metabolite nicotinate): -0.5789
- Log2(fold change) ornithine ([3]; metabolite ornithine): 0.0000
- Log2(fold change) orotate ([3]; metabolite orotate): -1.4233
- Log2(fold change) orotidine-5'-phosphate ([3]; metabolite orotidine-5'-phosphate): -3.1182
- Log2(fold change) oxaloacetate ([3]; metabolite oxaloacetate): 0.0000
- Log2(fold change) p-aminobenzoate ([3]; metabolite p-aminobenzoate): 0.0000
- Log2(fold change) p-hydroxybenzoate ([3]; metabolite p-hydroxybenzoate): 0.0000
- Log2(fold change) pantothenate ([3]; metabolite pantothenate): -0.7783
- Log2(fold change) phenylalanine ([3]; metabolite phenylalanine): -0.1127
- Log2(fold change) phenylpyruvate ([3]; metabolite phenylpyruvate): 0.0000
- Log2(fold change) phosphoenolpyruvate ([3]; metabolite phosphoenolpyruvate): 0.1262
- Log2(fold change) prephenate ([3]; metabolite prephenate): 0.0000
- Log2(fold change) proline ([3]; metabolite proline): -0.3073
- Log2(fold change) pyridoxine ([3]; metabolite pyridoxine): 0.2157
- Log2(fold change) pyruvate ([3]; metabolite pyruvate): -1.6686
- Log2(fold change) riboflavin ([3]; metabolite riboflavin): 0.0000
- Log2(fold change) ribose ([3]; metabolite ribose): 0.4922
- Log2(fold change) ribose-phosphate ([3]; metabolite ribose-phosphate): -2.5305
- Log2(fold change) ribulose-5-phosphate ([3]; metabolite ribulose-5-phosphate): -2.3648
- Log2(fold change) serine ([3]; metabolite serine): -0.3911
- Log2(fold change) sn-glycerol-3-phosphate ([3]; metabolite sn-glycerol-3-phosphate): -0.4279
- Log2(fold change) succinate/Methylmalonic acid ([3]; metabolite succinate/Methylmalonic acid): -3.0813
- Log2(fold change) succinyl-CoA/methylmalonyl-CoA ([3]; metabolite succinyl-CoA/methylmalonyl-CoA): -1.6128
- Log2(fold change) taurine ([3]; metabolite taurine): 0.0000
- Log2(fold change) thiamine ([3]; metabolite thiamine): 0.0000
- Log2(fold change) threonine/homoserine ([3]; metabolite threonine/homoserine): -0.6870
- Log2(fold change) thymidine ([3]; metabolite thymidine): 0.0000
- Log2(fold changes) thymine ([3]; metabolite thymine, log2 fold change): 0.0000
- Log2(fold changes) trehalose-6-Phosphate ([3]; metabolite trehalose-6-Phosphate, log2 fold change): 0.0000
- Log2(fold changes) tryptophan ([3]; metabolite tryptophan, log2 fold change): 0.1771
- Log2(fold changes) tyrosine ([3]; metabolite tyrosine, log2 fold change): -0.0043
- Log2(fold changes) uridine ([3]; metabolite uridine, log2 fold change): 0.0000
